# From ChEMBL document CHEMBL1132907, “The design and synthesis of the high efficacy, non-peptide CCK1 receptor agonist PD170292” (Bioorg Med Chem Lett, 2000)
# Key:
# [1] = target: T1, Cholecystokinin receptor type A (Rattus norvegicus, UniProt P30551); assay: Compound was evaluated for the binding affinity towards rat pancreatic Cholecystokinin type A receptor
# T1 sequence (P30551 whole entry): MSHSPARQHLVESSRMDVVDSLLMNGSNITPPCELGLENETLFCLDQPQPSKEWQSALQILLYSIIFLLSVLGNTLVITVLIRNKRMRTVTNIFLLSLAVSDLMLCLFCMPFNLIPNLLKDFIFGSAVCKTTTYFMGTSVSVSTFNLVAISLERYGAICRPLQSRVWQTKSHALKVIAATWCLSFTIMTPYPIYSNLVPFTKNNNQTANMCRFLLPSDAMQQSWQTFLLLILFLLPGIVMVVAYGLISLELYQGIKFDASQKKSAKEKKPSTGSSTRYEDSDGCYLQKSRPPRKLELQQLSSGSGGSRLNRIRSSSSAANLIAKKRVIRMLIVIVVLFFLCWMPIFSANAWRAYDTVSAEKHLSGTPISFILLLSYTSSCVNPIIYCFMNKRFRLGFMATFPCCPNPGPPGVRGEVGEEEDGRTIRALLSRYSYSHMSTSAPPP
# [2] = target: T2, Gastrin/cholecystokinin type B receptor (Mus musculus, UniProt P56481); assay: Binding affinity towards Cholecystokinin type B receptor in mouse cortex membrane; assay type: cell membranes
# T2 sequence (P56481 whole entry): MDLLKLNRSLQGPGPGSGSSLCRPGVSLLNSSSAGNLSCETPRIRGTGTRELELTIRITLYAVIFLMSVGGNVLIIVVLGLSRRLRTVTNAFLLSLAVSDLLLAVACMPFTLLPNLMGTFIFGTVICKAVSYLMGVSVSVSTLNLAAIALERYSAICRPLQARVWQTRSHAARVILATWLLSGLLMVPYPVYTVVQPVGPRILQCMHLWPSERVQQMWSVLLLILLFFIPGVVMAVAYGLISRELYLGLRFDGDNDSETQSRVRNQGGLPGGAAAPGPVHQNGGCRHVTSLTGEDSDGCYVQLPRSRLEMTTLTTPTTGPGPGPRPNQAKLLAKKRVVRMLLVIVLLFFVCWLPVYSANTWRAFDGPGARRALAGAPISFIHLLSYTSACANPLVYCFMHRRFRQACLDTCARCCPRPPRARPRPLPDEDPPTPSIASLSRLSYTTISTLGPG
# [3] = species: Rattus norvegicus; assay: Compound was evaluated for the stimulation of amylase secretion in isolated rat pancreatic acini
# [4] = tested on: Jurkat; assay: Compound was evaluated for calcium mobilization in Jurkat cells; assay type: functional, cell-based; settings: Homo sapiens
# [5] = tested on: Jurkat; assay: Compound was tested for [Ca2+] mobilization in Jurkat cells at 1 uM; Inactive; assay type: functional, cell-based, Homo sapiens
SMILES,IC50 [1] [nM],IC50 [2] [nM],EC50 [3] [nM],IC50 [4] [nM],EC50 [5],EC50 [4] [nM]
O=C(CC(Cc1c[nH]c2ccccc12)(NC(=O)OC1C2CC3CC(C2)CC1C3)C(=O)NCCc1ccccc1)NCCCCNC(=O)Nc1ccccc1Cl (configuration not stated),150,3600,480,,,
"CC(Cc1c[nH]c2ccccc12)(NC(=O)OC1C2CC3CC(C2)CC1C3)C(=O)N[C@H](CC(=O)O)Cc1ccc(F)cc1 (single isomer, unassigned)",75,0.083,,,,
Cc1ccccc1NC(=O)NCCCC[C@@H](CC(=O)O)NC(=O)[C@@](C)(Cc1c[nH]c2ccccc12)NC(=O)OC1C2CC3CC(C2)CC1C3 (some centres not stated) [PD-170292],1.2,6.7,5,40,Not Active,
CSCC[C@H](NC(=O)[C@H](Cc1ccc(OS(=O)(=O)O)cc1)NC(=O)[C@@H](N)CC(=O)O)C(=O)NCC(=O)N[C@@H](Cc1c[nH]c2ccccc12)C(=O)N[C@@H](CCSC)C(=O)N[C@@H](CC(=O)O)C(=O)N[C@@H](Cc1ccccc1)C(N)=O [SINCALIDE],,,0.02,,,2
